Among the data in US20220306659A1, “COMPOUND INHIBITING AND INDUCING DEGRADATION OF EGFR AND ALK” (BEIJING TIDE PHARMACEUTICAL CO., LTD., priority 2019, published 2022) are GI50 values, retold here.

Ba/F3(EGFR^Del19/T790M/C797S) cells, sequence (P00533 with tags, fused parts or gaps DEL746-750/T790M/C797S): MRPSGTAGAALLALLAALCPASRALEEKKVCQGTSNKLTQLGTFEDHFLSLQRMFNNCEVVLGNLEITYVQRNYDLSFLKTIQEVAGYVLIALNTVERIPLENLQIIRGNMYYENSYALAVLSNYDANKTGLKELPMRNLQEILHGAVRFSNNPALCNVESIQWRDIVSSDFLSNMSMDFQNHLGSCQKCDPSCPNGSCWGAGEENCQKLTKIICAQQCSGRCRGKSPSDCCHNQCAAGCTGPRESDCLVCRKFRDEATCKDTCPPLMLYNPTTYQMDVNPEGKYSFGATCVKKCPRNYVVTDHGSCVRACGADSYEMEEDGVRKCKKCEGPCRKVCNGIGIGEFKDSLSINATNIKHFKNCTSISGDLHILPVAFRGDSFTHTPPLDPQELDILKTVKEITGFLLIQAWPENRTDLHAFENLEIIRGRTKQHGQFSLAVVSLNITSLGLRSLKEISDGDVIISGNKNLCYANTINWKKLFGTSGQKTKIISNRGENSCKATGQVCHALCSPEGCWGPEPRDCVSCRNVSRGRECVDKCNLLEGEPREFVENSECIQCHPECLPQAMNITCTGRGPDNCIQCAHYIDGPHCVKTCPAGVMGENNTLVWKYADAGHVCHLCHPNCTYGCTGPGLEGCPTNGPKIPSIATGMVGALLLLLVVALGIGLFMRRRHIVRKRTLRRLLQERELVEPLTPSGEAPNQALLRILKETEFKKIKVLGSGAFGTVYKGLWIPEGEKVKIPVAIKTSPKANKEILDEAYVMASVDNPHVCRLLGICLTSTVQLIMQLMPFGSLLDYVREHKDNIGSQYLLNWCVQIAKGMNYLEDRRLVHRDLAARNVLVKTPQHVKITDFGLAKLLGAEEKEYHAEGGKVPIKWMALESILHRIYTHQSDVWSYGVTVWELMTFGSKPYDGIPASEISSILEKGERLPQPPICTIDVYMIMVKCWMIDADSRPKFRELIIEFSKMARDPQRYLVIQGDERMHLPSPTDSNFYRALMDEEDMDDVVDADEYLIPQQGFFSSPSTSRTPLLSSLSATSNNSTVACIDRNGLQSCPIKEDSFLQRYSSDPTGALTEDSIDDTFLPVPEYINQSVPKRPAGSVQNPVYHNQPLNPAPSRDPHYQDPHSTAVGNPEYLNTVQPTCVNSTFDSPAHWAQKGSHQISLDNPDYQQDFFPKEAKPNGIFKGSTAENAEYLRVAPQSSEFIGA

This assay has as its target Ba/F3(EGFR^Del19/T790M/C797S) cells (Homo sapiens, UniProt P00533, DEL746-750/T790M/C797S, cells depend on it). As to the kind of experiment: Assay of activity on Ba/F3 cells (CTG, 72 h). The class given is cell-based. Conditions: read-out: IC50 (nM) Ba/F3 (EGFR^Del19/T790M/C797S). As to the method:
(2) A compound stock solution was prepared, and then diluted 3× to obtain a compound dilution. 30 nL of the compound dilution was added to a 384-well plate by Echo (Labcyte, Echo550). The cells were incubated in an incubator at 37° C. and 5% CO2 for 72 h.
The percent inhibition rate (% inhibition) was calculated by the following formula
LUMcmpd: Luminescence value of assay compound.
LUMpositive: Average LUM value of positive drug at a concentration of 10 μM.
LUMvehicle. Average LUM value of negative control group without drug treatment.
The nonlinear regression curve (dose response-variable slope) between the value of inhibition rate (%) and the logarithm of compound concentration was fitted with graphpad prism 8.0, the effect dose curve of compound was drawn, and the IC50 value was calculated.
Y=Bottom+(Top−Bottom)/(1+1^((LogIC50−X)*HillSlope))
X-axis: logarithm of compound concentration; Y axis: inhibition rate ([…]).
Turning to `COc1cc(N2CCC(N3CCN(CCCC#Cc4cccc5c4CN(C4CCC(=O)NC4=O)C5=O)CC3)CC2)ccc1Nc1ncc(Cl)c(Nc2ccccc2P(C)(C)=O)n1` (stereo not drawn) [Compound C126, 3-(4-(5-(4-(1-(4-((5-chloro-4-((2-(dimethylphosphoryl)phenyl)amino)pyrimidin-2-yl)amino)-3-methoxyphenyl)piperidin-4-yl)piperazin-1-yl)pent-1-yn-1-yl)-1-oxoisoindolin-2-yl)piperidine-2,6-dione], the GI50 is 1 to 100 nM.

Consider `COc1cc(N2CCC(N3CCNCC3)CC2)c(C)cc1Nc1ncc(Br)c(Nc2ccc3nccnc3c2P(C)(C)=O)n1` [Compound C158-1], for which the GI50 lay within 1 to 100 nM.

Regarding `COc1cc(N2CCC(N3CCN(CCCCCCCCC#Cc4cccc5c4CN(C4CCC(=O)NC4=O)C5=O)CC3)CC2)ccc1Nc1ncc(Cl)c(Nc2ccccc2P(C)(C)=O)n1` (stereo not drawn) [Compound C179, 3-(4-(10-(4-(1-(4-((5-chloro-4-((2-(dimethylphosphoryl)phenyl)amino)pyrimidin-2-yl)amino)-3-methoxyphenyl)piperidin-4-yl)piperazin-1-yl)dec-1-yn-1-yl)-1-oxoisoindolin-2-yl)piperidine-2,6-dione], the GI50 is 1 to 100 nM.

Regarding `COc1cc(N2CCC3(CCN(CCCCCC#Cc4cc(F)cc5c4CN(C4CCC(=O)NC4=O)C5=O)CC3)CC2)c(C)cc1Nc1ncc(Br)c(Nc2ccc3nccnc3c2P(C)(C)=O)n1` (stereo not drawn) [Compound C185, 3-(4-(7-(9-(4-((5-bromo-4-((5-(dimethylphosphoryl)quinoxalin-6-yl)amino)pyrimidin-2-yl)amino)-5-methoxy-2-methylphenyl)-3,9-diazaspiro[5.5]undecan-3-yl)hept-1-yn-1-yl)-6-fluoro-1-oxoisoindolin-2-yl)piperidine-2,6-dione], the GI50 lay within 1 to 100 nM.

For `COc1cc(N2CCC(N3CCN(CCOCC#Cc4cc(C(F)(F)F)cc5c4CN(C4CCC(=O)NC4=O)C5=O)CC3)CC2)ccc1Nc1ncc(Cl)c(Nc2ccccc2P(C)(C)=O)n1` (stereo not drawn) [Compound C200, 3-(4-(3-(2-(4-(1-(4-((5-chloro-4-((2-(dimethylphosphoryl)phenyl)amino)pyrimidin-2-yl)amino)-3-methoxyphenyl)piperidin-4-yl)piperazin-1-yl)ethoxy)prop-1-yn-1-yl)-1-oxo-6-(trifluoromethyl)isoindolin-2-yl)piperidine-2,6-dione], the GI50 was in the range of 101 to 200 nM.

On to `COc1cc(N2CCC(N3CCN(CCCCCC#Cc4cc(Cl)cc5c4CN(C4CCC(=O)NC4=O)C5=O)CC3)CC2)ccc1Nc1ncc(Cl)c(Nc2ccccc2P(C)(C)=O)n1` (stereo not drawn) [Compound C202, 3-(6-chloro-4-(7-(4-(1-(4-((5-chloro-4-((2-(dimethylphosphoryl)phenyl)amino)pyrimidin-2-yl)amino)-3-methoxyphenyl)piperidin-4-yl)piperazin-1-yl)hept-1-yn-1-yl)-1-oxoisoindolin-2-yl)piperidine-2,6-dione], for which the GI50 is 1 to 100 nM.

For the compound `COc1cc(N2CCC(N3CCN(CCCCCC#Cc4cc(C#N)cc5c4CN(C4CCC(=O)NC4=O)C5=O)CC3)CC2)ccc1Nc1ncc(Cl)c(Nc2ccccc2P(C)(C)=O)n1` (stereo not drawn) [Compound C204, 7-(7-(4-(1-(4-((5-chloro-4-((2-(dimethylphosphoryl)phenyl)amino)pyrimidin-2-yl)amino)-3-methoxyphenyl)piperidin-4-yl)piperazin-1-yl)hept-1-yn-1-yl)-2-(2,6-dioxopiperidin-3-yl)-3-oxoisoindoline-5-carbonitrile], the GI50 lay in the range of 1 to 100 nM.

On to `COc1cc(N2CCC3(CCN(CCCCCCOc4cccc5c4CN(C4CCC(=O)NC4=O)C5=O)CC3)CC2)c(C)cc1Nc1ncc(Br)c(Nc2ccc3nccnc3c2P(C)(C)=O)n1` (stereo not drawn) [Compound C212, 3-(4-((6-(9-(4-((5-bromo-4-((5-(dimethylphosphoryl)quinoxalin-6-yl)amino)pyrimidin-2-yl)amino)-5-methoxy-2-methylphenyl)-3,9-diazaspiro[5.5]undecan-3-yl)hexyl)oxy)-1-oxoisoindolin-2-yl)piperidine-2,6-dione], for which the GI50 is 1 to 100 nM.

`COc1cc(N2CCC(N3CCN(CCCC#Cc4ccc5c(c4)CN(C4CCC(=O)NC4=O)C5=O)CC3)CC2)ccc1Nc1ncc(Cl)c(Nc2ccccc2P(C)(C)=O)n1` (stereo not drawn) [Compound C218, 3-(5-(5-(4-(1-(4-((5-chloro-4-((2-(dimethylphosphoryl)phenyl)amino)pyrimidin-2-yl)amino)-3-methoxyphenyl)piperidin-4-yl)piperazin-1-yl)pent-1-yn-1-yl)-1-oxoisoindolin-2-yl)piperidine-2,6-dione]: the GI50 was 1 to 100 nM.

On to `COc1cc(N2CCC(N3CCN(CCCC#Cc4cccc5c4CN(C4CCC(=O)NC4=O)C5=O)CC3)CC2)c(C)cc1Nc1ncc(Br)c(Nc2ccc3nccnc3c2P(C)(C)=O)n1` (stereo not drawn) [Compound C227, 3-(4-(5-(4-(1-(4-((5-bromo-4-((5-(dimethylphosphoryl)quinoxalin-6-yl)amino)pyrimidin-2-yl)amino)-5-methoxy-2-methylphenyl)piperidin-4-yl)piperazin-1-yl)pent-1-yn-1-yl)-1-oxoisoindolin-2-yl)piperidine-2,6-dione], for which the GI50 is 1 to 100 nM.

Regarding `COc1cc(N2CCC3(CCN(CCCC#Cc4cccc5c4CN(C4CCC(=O)NC4=O)C5=O)CC3)CC2)c(C)cc1Nc1ncc(Br)c(Nc2ccc3nccnc3c2P(C)(C)=O)n1` (stereo not drawn) [Compound C228, 3-(4-(5-(9-(4-((5-bromo-4-((5-(dimethylphosphoryl)quinoxalin-6-yl)amino)pyrimidin-2-yl)amino)-5-methoxy-2-methylphenyl)-3,9-diazaspiro[5.5]undecan-3-yl)pent-1-yn-1-yl)-1-oxoisoindolin-2-yl)piperidine-2,6-dione], the GI50 is 1 to 100 nM.

With `COc1cc(N2CCC(N3CCN(CCCCCC#Cc4cc(C#N)cc5c4CN(C4CCC(=O)NC4=O)C5=O)CC3)CC2)c(C)cc1Nc1ncc(Br)c(Nc2ccc3nccnc3c2P(C)(C)=O)n1` (stereo not drawn) [Compound C229, 7-(7-(4-(1-(4-((5-bromo-4-((5-(dimethylphosphoryl)quinoxalin-6-yl)amino)pyrimidin-2-yl)amino)-5-methoxy-2-methylphenyl)piperidin-4-yl)piperazin-1-yl)hept-1-yn-1-yl)-2-(2,6-dioxopiperidin-3-yl)-3-oxoisoindoline-5-carbonitrile], the GI50 lay in the range of 1 to 100 nM.

Take `COc1cc(N2CCC(N3CCN(CCCCc4ccc(-c5ccc6c(c5)CN(C5CCC(=O)NC5=O)C6=O)cc4)CC3)CC2)ccc1Nc1ncc(Cl)c(Nc2ccccc2P(C)(C)=O)n1` (stereo not drawn) [Compound C236, 3-(5-(4-(4-(4-(1-(4-((5-chloro-4-((2-(dimethylphosphoryl)phenyl)amino)pyrimidin-2-yl)amino)-3-methoxyphenyl)piperidin-4-yl)piperazin-1-yl)butyl)phenyl)-1-oxoisoindolin-2-yl)piperidine-2,6-dione]: the GI50 fell in the range of 1 to 100 nM.

`COc1cc(N2CCC(N3CCN(CCCCCCc4cccc5c4CN(C4CCC(=O)NC4=O)C5=O)CC3)CC2)ccc1Nc1ncc(Cl)c(Nc2ccccc2P(C)(C)=O)n1` (stereo not drawn) [Compound C238, 3-(4-(6-(4-(1-(4-((5-chloro-4-((2-(dimethylphosphoryl)phenyl)amino)pyrimidin-2-yl)amino)-3-methoxyphenyl)piperidin-4-yl)piperazin-1-yl)hexyl)-1-oxoisoindolin-2-yl)piperidine-2,6-dione]: the GI50 lay within 1 to 100 nM.

Take `COc1cc(N2CCC(N3CCN(CCCCCCCCc4cccc5c4CN(C4CCC(=O)NC4=O)C5=O)CC3)CC2)ccc1Nc1ncc(Cl)c(Nc2ccccc2P(C)(C)=O)n1` (stereo not drawn) [Compound C240, 3-(4-(8-(4-(1-(4-((5-chloro-4-((2-(dimethylphosphoryl)phenyl)amino)pyrimidin-2-yl)amino)-3-methoxyphenyl)piperidin-4-yl)piperazin-1-yl)octyl)-1-oxoisoindolin-2-yl)piperidine-2,6-dione]: the GI50 lay within 1 to 100 nM.

On to `COc1cc(N2CCC(N3CCN(CCCCCC#Cc4ccc(F)c5c4CN(C4CCC(=O)NC4=O)C5=O)CC3)CC2)ccc1Nc1ncc(Cl)c(Nc2ccccc2P(C)(C)=O)n1` (stereo not drawn) [Compound C243, 3-(4-(7-(4-(1-(4-((5-chloro-4-((2-(dimethylphosphoryl)phenyl)amino)pyrimidin-2-yl)amino)-3-methoxyphenyl)piperidin-4-yl)piperazin-1-yl)hept-1-yn-1-yl)-7-fluoro-1-oxoisoindolin-2-yl)piperidine-2,6-dione], for which the GI50 fell in the range of 1 to 100 nM.

Regarding `COc1cc(N2CCC(N3CCN(CCCCCCCc4cccc5c4CN(C4CCC(=O)NC4=O)C5=O)CC3)CC2)ccc1Nc1ncc(Cl)c(Nc2ccccc2P(C)(C)=O)n1` (stereo not drawn) [Compound C245, 3-(4-(7-(4-(1-(4-((5-chloro-4-((2-(dimethylphosphoryl)phenyl)amino)pyrimidin-2-yl)amino)-3-methoxyphenyl)piperidin-4-yl)piperazin-1-yl)heptyl)-1-oxoisoindolin-2-yl)piperidine-2,6-dione], the GI50 is 1 to 100 nM.

On to `COc1cc(N2CCC(N3CCN(CCCC#Cc4cc(C#N)cc5c4CN(C4CCC(=O)NC4=O)C5=O)CC3)CC2)ccc1Nc1ncc(Cl)c(Nc2ccccc2P(C)(C)=O)n1` (stereo not drawn) [Compound C258, 7-(5-(4-(1-(4-((5-chloro-4-((2-(dimethylphosphoryl)phenyl)amino)pyrimidin-2-yl)amino)-3-methoxyphenyl)piperidin-4-yl)piperazin-1-yl)pent-1-yn-1-yl)-2-(2,6-dioxopiperidin-3-yl)-3-oxoisoindoline-5-carbonitrile], for which the GI50 lay within 1 to 100 nM.
